Results on one molecule are retold here after patent publication US20220226319A1, “TALTIRELIN USE” (EOLAS RESEARCH LIMITED, priority 2019, published 2022).

Structures are written as SMILES. Entries after “also recorded” stand apart in the source; their conditions may differ. A value given as a limit tells only on which side of the number the result lay.

Type in all cases: cell-based
Assay [1] deals with FOXO3 gene expression in fibroblasts. The experiment in a line: FOXO3 gene expression in fibroblasts. As to conditions: older cells (passage 20), P<0.01, FIG. 1. From the text: (§1) Experiments have shown that taltirelin modulates the gene expression in fibroblasts of a variety of genes involved in processes underlying ageing.
(§2) FIG. 1 illustrates the increased expression of FOXO1 and FOXO3 genes that occurs in fibroblasts by administration of taltirelin. From the results, it can be seen that the administration of taltirelin in older cells (passage 20) led to a large increase in the expression of FOXO1 (>5×) and FOXO3 (>1.5×) compared to untreated controls. The results were statistically significant with P<0.01.

In assay [2] the test system is SERPINE1 gene expression in fibroblasts. The experiment in a line: SERPINE1 gene expression in fibroblasts. Particulars: older cells (passage 20), FIG. 2. The source says:
(§3) FIG. 2 illustrates the increased expression of EFNB1, NFE2L2, SERPINE1 and SIRT1 genes in fibroblasts that occurs by administration of taltirelin.

Assay [3] has as its system NFE2L2 gene expression in fibroblasts. The experiment in a line: NFE2L2 gene expression in fibroblasts. As to conditions: older cells (passage 20), FIG. 2.
Excerpt: as §3

The subject of assay [4] is SIRT1 gene expression in fibroblasts. The experiment in a line: SIRT1 gene expression in fibroblasts. As to conditions: older cells (passage 20), FIG. 2.
Excerpt: as §3

For assay [5], the system named is FOXO1 gene expression in fibroblasts. The experiment in a line: FOXO1 gene expression in fibroblasts. Particulars: older cells (passage 20), P<0.01, FIG. 1.
Excerpt: as §1, §2

Assay [6] concerns EFNB1 gene expression in fibroblasts. The experiment in a line: EFNB1 gene expression in fibroblasts. Particulars: older cells (passage 20), FIG. 2.
Excerpt: as §3

`CN1C(=O)C[C@@H](C(=O)N[C@@H](Cc2cnc[nH]2)C(=O)N2CCC[C@H]2C(N)=O)NC1=O` [taltirelin, N-[[(4S)-Hexahydro-1-methyl-2,6-dioxo-4-pyrimidinyl]carbonyl]-L-histidyl-L-prolinamide]: in assay [1], the “increase in the expression of FOXO3 compared to untreated controls” value is listed as greater than 1.5 ×. In assay [2], the “expression of SERPINE1 gene compared to untreated controls” value was “statistically significant (P<0.01) decrease; also recorded: significantly inhibited”. Moreover, the “expression of NFE2L2 gene compared to untreated controls” value in assay [3] was “statistically significant (P<0.01) increase; also recorded: significantly increased”. The “expression of SIRT1 gene compared to untreated controls” value in assay [4] was “statistically significant (P<0.01) increase; also recorded: increased significantly”. In addition, the “increase in the expression of FOXO1 compared to untreated controls” value in assay [5] is given as greater than 5 ×. Also, in assay [6], the “expression of EFNB1 gene compared to untreated controls” value is “statistically significant (P<0.01) increase; also recorded: significantly increased”.
